ChEMBL document CHEMBL3611994, “Discovery of 4-benzoylamino-N-(prop-2-yn-1-yl)benzamides as novel microRNA-21 inhibitors” (Bioorg Med Chem, 2015)
Calls of active or inactive are those of the source. The calls are words filed in the database; no cut-off is given here.

Columns and labels:
Nucleic Acid [1] = assay: Inhibition of microRNA-21 in human HeLa cells assessed as reduction in microRNA-21 expression at 10 uM incubated for 24 hrs by stem-loop RT-PCR method; format: cell-based
Nucleic Acid [2] = assay: Inhibition of microRNA-133 in human HeLa cells assessed as reduction in microRNA-21 expression at 10 uM incubated for 24 hrs by RT-qPCR method; format: cell-based
Nucleic Acid [3] = assay: Inhibition of microRNA-152 in human HeLa cells assessed as reduction in microRNA-21 expression at 10 uM incubated for 24 hrs by RT-qPCR method; format: cell-based
HeLa [4] = assay: Induction of apoptosis in human HeLa cells assessed as late apoptotic cells level at 10 uM incubated for 48 hrs by Annexin V-FITC and propidium iodide staining based flow cytometry (reference value: 2.2%); format: functional
Nucleic Acid [5] = assay: Inhibition of microRNA-143 in human HeLa cells assessed as reduction in microRNA-21 expression at 10 uM incubated for 24 hrs by RT-qPCR method; format: cell-based
Nucleic Acid [6] = assay: Inhibition of microRNA-145 in human HeLa cells assessed as reduction in microRNA-21 expression at 10 uM incubated for 24 hrs by RT-qPCR method; format: cell-based
HeLa [7] = assay: Effect on universal miRNA biosynthesis pathway-related gene expression in human HeLa assessed as TARBP2 gene expression at 10 uM incubated for 24 hrs by RT-qPCR method; format: ADME, cell-based
U-87 MG [8] = assay: Induction of apoptosis in human U87MG cells assessed as late apoptotic cells level at 10 uM incubated for 48 hrs by Annexin V-FITC and propidium iodide staining based flow cytometry (reference value: 2.6%); format: functional, U-87MG ATCC
Nucleic Acid [9] = assay: Inhibition of microRNA-21 in human HeLa cells assessed as reduction in microRNA-21 expression at 2.5 to 20 uM incubated for 24 hrs by stem-loop RT-PCR method; format: cell-based
HeLa [10] = assay: Effect on universal miRNA biosynthesis pathway-related gene expression in human HeLa assessed as DROSHA gene expression at 10 uM incubated for 24 hrs by RT-qPCR method; format: cell-based
Nucleic Acid [11] = assay: Inhibition of microRNA-146 in human HeLa cells assessed as reduction in microRNA-21 expression at 10 uM incubated for 24 hrs by RT-qPCR method; format: cell-based
Nucleic Acid [12] = assay: Inhibition of microRNA-25 in human HeLa cells assessed as reduction in microRNA-21 expression at 10 uM incubated for 24 hrs by RT-qPCR method; format: cell-based
U-87 MG [13] = assay: Induction of apoptosis in human U87MG cells assessed as necrotic cells level at 10 uM incubated for 48 hrs in presence of 50 uM H2O2 by Annexin V-FITC and propidium iodide staining based flow cytometry (reference value: 1.3%); format: functional, U-87MG ATCC
U-87 MG [14] = assay: Induction of apoptosis in human U87MG cells assessed as viable cells level at 10 uM incubated for 48 hrs by Annexin V-FITC and propidium iodide staining based flow cytometry (reference value: 94.1%); format: functional, U-87MG ATCC
HeLa [15] = assay: Induction of apoptosis in human HeLa cells assessed as late apoptotic cells level at 10 uM incubated for 48 hrs in presence of 50 uM H2O2 by Annexin V-FITC and propidium iodide staining based flow cytometry (reference value: 2.2%); format: functional
HeLa [16] = assay: Effect on universal miRNA biosynthesis pathway-related gene expression in human HeLa assessed as AGO2 gene expression at 10 uM incubated for 24 hrs by RT-qPCR method; format: cell-based
U-87 MG [17] = assay: Induction of apoptosis in human U87MG cells assessed as late apoptotic cells level at 10 uM incubated for 48 hrs in presence of 50 uM H2O2 by Annexin V-FITC and propidium iodide staining based flow cytometry (reference value: 2.6%); format: functional, U-87MG ATCC
U-87 MG [18] = assay: Induction of apoptosis in human U87MG cells assessed as viable cells level at 10 uM incubated for 48 hrs in presence of 50 uM H2O2 by Annexin V-FITC and propidium iodide staining based flow cytometry (reference value: 94.1%); format: functional, U-87MG ATCC
U-87 MG [19] = assay: Inhibition of cell proliferation of human U87MG cells assessed as induction of retardation of cell proliferation at 10 uM incubated for 48 hrs in presence of 50 uM H2O2 by CFSE staining based FACS method; format: functional; details: U-87MG ATCC
HeLa [20] = assay: Induction of apoptosis in human HeLa cells assessed as viable cells level at 10 uM incubated for 48 hrs in presence of 50 uM H2O2 by Annexin V-FITC and propidium iodide staining based flow cytometry (reference value: 93.7%); format: functional
U-87 MG [21] = assay: Induction of apoptosis in human U87MG cells assessed as early apoptotic cells level at 10 uM incubated for 48 hrs by Annexin V-FITC and propidium iodide staining based flow cytometry (reference value: 2%); format: functional, U-87MG ATCC
HeLa [22] = assay: Induction of apoptosis in human HeLa cells assessed as necrotic cells level at 10 uM incubated for 48 hrs in presence of 50 uM H2O2 by Annexin V-FITC and propidium iodide staining based flow cytometry (reference value: 1.2%); format: functional
U-87 MG [23] = assay: Inhibition of cell proliferation of human U87MG cells assessed as time required for cell doubling by measuring mean fluorescence intensity at 10 uM incubated for 48 hrs in presence of 50 uM H2O2 by CFSE staining based FACS method; format: functional; details: U-87MG ATCC
U-87 MG [24] = assay: Inhibition of cell proliferation of human U87MG cells assessed as induction of retardation of cell proliferation at 10 uM incubated for 48 hrs by CFSE staining based FACS method; format: functional; details: U-87MG ATCC
HeLa [25] = assay: Induction of apoptosis in human HeLa cells assessed as early apoptotic cells level at 10 uM incubated for 48 hrs by Annexin V-FITC and propidium iodide staining based flow cytometry (reference value: 2.9%); format: functional
Nucleic Acid [26] = assay: Inhibition of microRNA-148 in human HeLa cells assessed as reduction in microRNA-21 expression at 10 uM incubated for 24 hrs by RT-qPCR method; format: cell-based
Nucleic Acid [27] = assay: Inhibition of microRNA-21 in human HeLa cells assessed as increase in PDCD4 protein expression at 10 uM incubated for 48 hrs by Western blot method; format: cell-based
U-87 MG [28] = assay: Induction of apoptosis in human U87MG cells assessed as early apoptotic cells level at 10 uM incubated for 48 hrs in presence of 50 uM H2O2 by Annexin V-FITC and propidium iodide staining based flow cytometry (reference value: 2%); format: functional, U-87MG ATCC
Nucleic Acid [29] = assay: Inhibition of microRNA-26 in human HeLa cells assessed as reduction in microRNA-21 expression at 10 uM incubated for 24 hrs by RT-qPCR method; format: cell-based
Nucleic Acid [30] = assay: Inhibition of microRNA-21 in human HeLa cells assessed as reduction in microRNA-21 expression at 10 uM incubated for 6 to 48 hrs by stem-loop RT-PCR method; format: cell-based
HeLa [31] = assay: Effect on universal miRNA biosynthesis pathway-related gene expression in human HeLa assessed as DICER1 gene expression at 10 uM incubated for 24 hrs by RT-qPCR method; format: cell-based
HeLa [32] = assay: Induction of apoptosis in human HeLa cells assessed as viable cells level at 10 uM incubated for 48 hrs by Annexin V-FITC and propidium iodide staining based flow cytometry (reference value: 93.7%); format: functional
Nucleic Acid [33] = assay: Inhibition of microRNA-195 in human HeLa cells assessed as reduction in microRNA-21 expression at 10 uM incubated for 24 hrs by RT-qPCR method; format: cell-based
HeLa [34] = assay: Effect on universal miRNA biosynthesis pathway-related gene expression in human HeLa assessed as XPO5 gene expression at 10 uM incubated for 24 hrs by RT-qPCR method; format: cell-based
HeLa [35] = assay: Inhibition of let-7a miRNA in human HeLa cells assessed as reduction in microRNA-21 expression at 10 uM incubated for 24 hrs by RT-qPCR method; format: cell-based
HeLa [36] = assay: Induction of apoptosis in human HeLa cells assessed as necrotic cells level at 10 uM incubated for 48 hrs by Annexin V-FITC and propidium iodide staining based flow cytometry (reference value: 1.2%); format: functional
U-87 MG [37] = assay: Induction of apoptosis in human U87MG cells assessed as necrotic cells level at 10 uM incubated for 48 hrs by Annexin V-FITC and propidium iodide staining based flow cytometry (reference value: 1.3%); format: functional, U-87MG ATCC
HeLa [38] = assay: Effect on universal miRNA biosynthesis pathway-related gene expression in human HeLa assessed as DGCR8 gene expression at 10 uM incubated for 24 hrs by RT-qPCR method; format: cell-based
HeLa [39] = assay: Inhibition of cell proliferation of human HeLa cells assessed as induction of retardation of cell proliferation at 10 uM incubated for 48 hrs by CFSE staining based FACS method; format: functional
HeLa [40] = assay: Induction of apoptosis in human HeLa cells assessed as early apoptotic cells level at 10 uM incubated for 48 hrs in presence of 50 uM H2O2 by Annexin V-FITC and propidium iodide staining based flow cytometry (reference value: 2.9%); format: functional
U-87 MG [41] = assay: Inhibition of cell proliferation of human U87MG cells assessed as time required for cell doubling by measuring mean fluorescence intensity at 10 uM incubated for 48 hrs by CFSE staining based FACS method; format: functional; details: U-87MG ATCC
Nucleic Acid [42] = assay: Inhibition of microRNA-126 in human HeLa cells assessed as reduction in microRNA-21 expression at 10 uM incubated for 24 hrs by RT-qPCR method; format: cell-based
HeLa [43] = assay: Inhibition of cell proliferation of human HeLa cells assessed as induction of retardation of cell proliferation at 10 uM incubated for 48 hrs in presence of 50 uM H2O2 by CFSE staining based FACS method; format: functional

C#CCNC(=O)c1ccc(NC(=O)c2ccc(OC)c(OCc3ccccc3)c2)cc1
inhibition (Nucleic Acid [1]): Active

C#CCNC(=O)c1ccc(NC(=O)c2cccnc2)cc1
inhibition (Nucleic Acid [1]): Active

C#CCNC(=O)c1ccc(NC(=O)c2ccccc2Br)cc1
inhibition (Nucleic Acid [2]): inactive | inhibition (Nucleic Acid [3]): inactive | Activity (HeLa [4]): 3.4% | inhibition (Nucleic Acid [5]): inactive | inhibition (Nucleic Acid [6]): inactive | Activity (HeLa [7]): Non-toxic | Activity (U-87 MG [8]): 4% | inhibition (Nucleic Acid [9]): Active | Activity (HeLa [10]): Non-toxic | inhibition (Nucleic Acid [11]): inactive | inhibition (Nucleic Acid [12]): inactive | Activity (U-87 MG [13]): 3.5% | Activity (U-87 MG [14]): 91.9% | Activity (HeLa [15]): 19.1% | Activity (HeLa [16]): Non-toxic | Activity (U-87 MG [17]): 10.2% | Activity (U-87 MG [18]): 82.4% | inhibition (U-87 MG [19]): Active | Activity (HeLa [20]): 67.5% | Activity (U-87 MG [21]): 2.3% | Activity (HeLa [22]): 4.5% | inhibition (U-87 MG [23]): Active | inhibition (U-87 MG [24]): Active | Activity (HeLa [25]): 3.5% | inhibition (Nucleic Acid [26]): inactive | inhibition (Nucleic Acid [27]): Active | Activity (U-87 MG [28]): 3.9% | inhibition (Nucleic Acid [29]): inactive | inhibition (Nucleic Acid [30]): Active | Activity (HeLa [31]): Non-toxic | inhibition (Nucleic Acid [1]): Active | Activity (HeLa [32]): 91.6% | inhibition (Nucleic Acid [33]): inactive | Activity (HeLa [34]): Non-toxic | inhibition (HeLa [35]): inactive | Activity (HeLa [36]): 1.5% | Activity (U-87 MG [37]): 1.7% | Activity (HeLa [38]): Non-toxic | inhibition (HeLa [39]): Active | Activity (HeLa [40]): 8.9% | inhibition (U-87 MG [41]): Active | inhibition (Nucleic Acid [42]): inactive | inhibition (HeLa [43]): Active

C#CCNC(=O)c1ccc(NC(=O)c2cc(OC)ccc2OC)cc1
inhibition (Nucleic Acid [1]): Active

C#CCNC(=O)c1ccc(NC(=O)c2cccc(I)c2)cc1
inhibition (Nucleic Acid [1]): Active

C#CCNC(=O)c1ccc(/N=N/c2ccccc2)cc1
inhibition (Nucleic Acid [27]): Active | inhibition (Nucleic Acid [1]): Active

C#CCNC(=O)c1ccc(NC(=O)c2ccc(OC)cc2OC)cc1
inhibition (Nucleic Acid [1]): Active
